In assay [1] the target is T1, FGFR3c/BKL (Fc-fused human FGF-R3alpha(IIIc) with beta-klotho) (Homo sapiens, UniProt P22607).
T1 sequence (P22607 23-375 limits assumed): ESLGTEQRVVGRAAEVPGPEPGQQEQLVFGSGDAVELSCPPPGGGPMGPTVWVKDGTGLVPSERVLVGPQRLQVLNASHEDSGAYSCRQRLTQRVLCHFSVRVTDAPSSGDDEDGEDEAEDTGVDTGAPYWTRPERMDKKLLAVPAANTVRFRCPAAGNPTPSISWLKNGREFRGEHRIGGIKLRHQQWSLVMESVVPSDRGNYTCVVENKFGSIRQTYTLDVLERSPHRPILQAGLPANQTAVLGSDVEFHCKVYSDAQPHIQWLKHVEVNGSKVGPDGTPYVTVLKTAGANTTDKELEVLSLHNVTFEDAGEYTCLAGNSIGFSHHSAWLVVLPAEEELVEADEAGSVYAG
Nature of the assay: AlphaScreen FGF21 competitive binding assay. In general terms: Bead proximity is the source of the signal in Alpha formats.
Description: Alphascreen binding assay
(§2) The competitive binding assay was carried out according to the methods detailed in Hansen. et al using
(§3) AlphaScreen.3 All reagents and samples were prepared in assay buffer: 40mM Hepes, 140mM NaCl, 1mM
(§4) CaCl2, 0,05% Tween20, pH=7.5, 0.1% BSA. In brief, recombinant human beta-klotho (R&D Systems) was
(§5) preincubated for 60 min with the ectodomain, either Fc-fused human FGF-R1alpha(IIIc), FGF-R3alpha(IIIc)
(§6) or FGF-R4 (R&D Systems), and the mixture was added to the test peptides in OptiPlate™ (PerkinElmer).
(§7) Biotinylated FGF21 and heparin were further added to each well. AlphaScreen bead mix (1:1 mix of Protein
(§8) A acceptor beads/ streptavidin-coated donor beads, PerkinElmer) were added to each well incubated
(§9) overnight at RT in the dark, and measured on a plate reader (Envision). Assays were carried out in triplicates
(§10) with concentrations ranging from 3, 10, 30, 100, 300 ,1000 and 3000 nM of peptide. No peptide control
(§11) (media only) was used as a negative control, and unlabeled FGF21 and FGF1 as positive control.
(§12) competing with biotinylated natural FGF21 ligand.

For assay [2], the target named is T2, FGFR4/KLB (Fc-fused human FGF-R4 with beta-klotho) (Homo sapiens, UniProt P22455).
T2 sequence (P22455 22-369 limits assumed): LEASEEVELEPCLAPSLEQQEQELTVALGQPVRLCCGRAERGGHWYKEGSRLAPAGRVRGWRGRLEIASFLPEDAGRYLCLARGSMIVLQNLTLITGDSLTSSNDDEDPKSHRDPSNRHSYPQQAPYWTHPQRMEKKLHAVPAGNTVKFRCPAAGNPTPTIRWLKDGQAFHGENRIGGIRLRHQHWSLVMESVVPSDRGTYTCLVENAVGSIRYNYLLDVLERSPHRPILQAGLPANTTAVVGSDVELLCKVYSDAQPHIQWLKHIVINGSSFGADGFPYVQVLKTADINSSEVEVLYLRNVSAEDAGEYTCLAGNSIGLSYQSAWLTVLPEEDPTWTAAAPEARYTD
Description: AlphaScreen FGF21 competitive binding assay.
Description: Alphascreen binding assay
as §2, §3, §4, §5, §6, §7, §8, §9, §10, §11, §12

The target in assay [3] is T3, FGFR1c/KLB (Fc-fused human FGF-R1alpha(IIIc) with beta-klotho) (Homo sapiens, UniProt P11362).
T3 sequence (P11362 22-376 limits assumed): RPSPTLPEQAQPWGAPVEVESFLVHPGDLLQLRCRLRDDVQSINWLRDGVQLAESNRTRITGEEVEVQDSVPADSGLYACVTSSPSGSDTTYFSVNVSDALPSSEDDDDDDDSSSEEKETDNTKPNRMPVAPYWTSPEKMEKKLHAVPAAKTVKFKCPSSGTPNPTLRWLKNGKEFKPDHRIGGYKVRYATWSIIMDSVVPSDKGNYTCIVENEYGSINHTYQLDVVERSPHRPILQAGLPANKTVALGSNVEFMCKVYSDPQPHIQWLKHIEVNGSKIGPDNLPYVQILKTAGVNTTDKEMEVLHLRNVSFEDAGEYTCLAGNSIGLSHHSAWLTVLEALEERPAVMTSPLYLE
Nature of the assay: AlphaScreen FGF21 competitive binding assay.
Description: Alphascreen binding assay
as §2, §3, §4, §5, §6, §7, §8, §9, §10, §11, §12

Assay [4] concerns the target T4, FGF-R3C ECD (Homo sapiens, UniProt P22607).
T4 sequence (P22607 23-375 limits assumed): T1 sequence (P22607 23-375 limits assumed)
Nature of the assay: biochemical. Type of assay: binding. Set-up: DNA constructs for the extracellular domain (ECD) of human FGF-; HPC4 (C); made in house; host or cells: HEK 293-6E. A digest of the protocol:
(§1)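 Streptavidin biosensors carrying biotinylated FGF receptor ECD were immersed in peptide (~1 μM for crude single-point runs, a concentration series for purified peptides) and then in peptide-free buffer. KD was obtained by fitting the BLI association and dissociation curves.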

Assay [5] has as its target T5, FGF-R1C ECD (Homo sapiens, UniProt P11362).
T5 sequence (P11362 22-376 limits assumed): T3 sequence (P11362 22-376 limits assumed)
Description: biochemical. In kind it is binding. Also noted: DNA constructs for the extracellular domain (ECD) of human FGF-; HPC4 (C); made in house; host or cells: HEK 293-6E. The procedure, abridged:
as §1

In assay [6] the target is T6, FGF-R4 ECD (Homo sapiens, UniProt P22455).
T6 construct: DNA constructs for the extracellular domain (ECD) of human FGF-; HPC4 (C); made in house; host or cells: HEK 293-6E
T6 sequence (P22455 22-369 limits assumed): T2 sequence (P22455 22-369 limits assumed)
Description: multi-concentration BLI of purified peptides. Type of assay: binding. A digest of the protocol:
as §1

Assay [7] addresses T4, FGF-R3C ECD. Nature of the assay: biochemical. The procedure, abridged:
as §1

The target of assay [8] is T5, FGF-R1C ECD. Description: biochemical. The procedure, abridged:
as §1

The target in assay [9] is T6, FGF-R4 ECD. Nature of the assay: single concentration BLI of crude peptides. In kind it is binding. The note with it: read-out: KD (4). The procedure, abridged: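 Biotinylated FGF-R ECD on streptavidin biosensors was dipped into ~1 μM crude peptide in PBS pH7.4 with 0.05% Tween-20 and 0.01% BSA for association, then into buffer for dissociation, and followed by BLI. Fitted KD values were adjusted for peptide concentration measured by UPLC-CAD.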

Setting [10] is: crude NNK peptides, single concentration BLI (Table S3).
Setting [11] is: purified trimer-18 library peptides.
[12] abbreviates: crude T18 selection 1 (1:1:1) peptides, single concentration BLI (Table S4).
Where [13] appears, read: read-out: IC50 values for controls (FGF-R3C), positive controls, Alphascreen vs biotinylated FGF21.
Where [14] appears, read: read-out: IC50 values for controls (FGF-R4), positive controls, Alphascreen vs biotinylated FGF21.
The mark [15] stands for this setting: read-out: IC50 values for controls (FGF-R1C), positive controls, Alphascreen vs biotinylated FGF21.

Like-named read-outs stand apart in the source and are kept apart here.

One may read the IC50 as the concentration at which inhibition is half-maximal. Usually Kd stands for a measure of binding affinity in units of concentration.

As for `CC[C@H](C)[C@@H]1NC(=O)[C@@H](NC(=O)[C@@H](N)CCSC)CSSC[C@@H](C(=O)NCC(=O)N[C@@H](CO)C(=O)NCC(=O)N[C@@H](CO)C(=O)N[C@@H](CC(=O)O)C(=O)N[C@@H](Cc2ccc(O)cc2)C(=O)N[C@@H](CCCCN)C(=O)N[C@@H](CC(=O)O)C(=O)N[C@@H](CC(=O)O)C(=O)N[C@@H](CC(=O)O)C(=O)N[C@@H](CC(=O)O)C(=O)N[C@@H](CCCCN)C(N)=O)NC(=O)[C@H](CCCNC(=N)N)NC(=O)[C@H]([C@@H](C)O)NC(=O)[C@H](Cc2c[nH]c3ccccc23)NC(=O)[C@H](Cc2ccc(O)cc2)NC(=O)[C@H](CCC(N)=O)NC(=O)[C@H](Cc2ccc(O)cc2)NC(=O)[C@H]([C@@H](C)O)NC(=O)[C@H](Cc2ccc(O)cc2)NC(=O)[C@H](Cc2c[nH]c3ccccc23)NC(=O)[C@H](CCCCN)NC(=O)CNC1=O` [1C.1], the results for the IC50 in [1], in [2] and in assay [3] were greater than 1000 nM, greater than 1000 nM and 249 nM, respectively. In addition, the dissociation constant Kd in assay [4] is greater than 10000 nM; in [5], 488 nM; in [6] (purified NNK library peptides), greater than 1000 nM; in assay [7], greater than 1000 nM; in assay [8] it was 111 nM; in assay [9] (setting [10]), greater than 10000 nM.

For the molecule `CSCC[C@H](N)C(=O)N[C@H]1CSSC[C@@H](C(=O)NCC(=O)N[C@@H](CO)C(=O)NCC(=O)N[C@@H](CO)C(=O)N[C@@H](CC(=O)O)C(=O)N[C@@H](Cc2ccc(O)cc2)C(=O)N[C@@H](CCCCN)C(=O)N[C@@H](CC(=O)O)C(=O)N[C@@H](CC(=O)O)C(=O)N[C@@H](CC(=O)O)C(=O)N[C@@H](CC(=O)O)C(=O)N[C@@H](CCCCN)C(N)=O)NC(=O)[C@H](C(C)C)NC(=O)[C@H](Cc2c[nH]c3ccccc23)NC(=O)[C@H](Cc2ccc(O)cc2)NC(=O)[C@H](CCCNC(=N)N)NC(=O)[C@H](CC(=O)O)NC(=O)[C@H](Cc2ccccc2)NC(=O)[C@H](Cc2c[nH]cn2)NC(=O)[C@H](CCCNC(=N)N)NC(=O)[C@H]([C@@H](C)O)NC(=O)[C@H](Cc2c[nH]c3ccccc23)NC(=O)[C@H](CC(C)C)NC(=O)[C@H](CC(C)C)NC1=O` [1C.2], the IC50 is greater than 1000 nM in [1], greater than 1000 nM in [2] and 108 nM in assay [3]. For the same molecule, the dissociation constant (Kd) was greater than 10000 nM in [4]; 95 nM in assay [5]; greater than 1000 nM in assay [6] (purified NNK library peptides); greater than 1000 nM in assay [7]; 64 nM in assay [8]; greater than 10000 nM in assay [9] (setting [10]).

For `CSCC[C@@H]1NC(=O)[C@H](CC(N)=O)NC(=O)[C@H](CO)NC(=O)[C@@H](NC(=O)[C@@H](N)CCSC)CSSC[C@@H](C(=O)NCC(=O)N[C@@H](CO)C(=O)NCC(=O)N[C@@H](CO)C(=O)N[C@@H](CC(=O)O)C(=O)N[C@@H](Cc2ccc(O)cc2)C(=O)N[C@@H](CCCCN)C(=O)N[C@@H](CC(=O)O)C(=O)N[C@@H](CC(=O)O)C(=O)N[C@@H](CC(=O)O)C(=O)N[C@@H](CC(=O)O)C(=O)N[C@@H](CCCCN)C(N)=O)NC(=O)[C@H](C)NC(=O)[C@H](Cc2c[nH]c3ccccc23)NC(=O)[C@H](Cc2c[nH]c3ccccc23)NC(=O)[C@H](CCCNC(=N)N)NC(=O)[C@H](CC(N)=O)NC(=O)[C@H](C)NC(=O)[C@H](CC(C)C)NC(=O)[C@H](CCCCN)NC(=O)[C@H](Cc2c[nH]c3ccccc23)NC1=O` [1C.3], in [2], the IC50 is greater than 1000 nM. Further, the Kd in assay [6] (purified NNK library peptides) is greater than 1000 nM; in assay [9] (setting [10]) it was greater than 10000 nM.

For the molecule `CSCC[C@H](NC(C)=O)C(=O)N[C@H]1CSSC[C@@H](C(=O)NCC(=O)N[C@@H](CO)C(=O)NCC(=O)N[C@@H](CO)C(=O)N[C@@H](CC(=O)O)C(=O)N[C@@H](Cc2ccc(O)cc2)C(=O)N[C@@H](CCCCN)C(=O)N[C@@H](CC(=O)O)C(=O)N[C@@H](CC(=O)O)C(=O)N[C@@H](CC(=O)O)C(=O)N[C@@H](CC(=O)O)C(=O)N[C@@H](CCCCN)C(N)=O)NC(=O)[C@H](C)NC(=O)[C@H](Cc2c[nH]c3ccccc23)NC(=O)[C@H](Cc2ccc(O)cc2)NC(=O)[C@H](CCCNC(=N)N)NC(=O)[C@H](Cc2ccc(O)cc2)NC(=O)[C@H](CO)NC(=O)[C@H](Cc2ccc(O)cc2)NC(=O)[C@H](Cc2ccccc2)NC(=O)[C@H](CC(=O)O)NC(=O)[C@H](CC(=O)O)NC(=O)[C@H](CC(C)C)NC(=O)[C@H](Cc2ccc(O)cc2)NC1=O` [4.16], the dissociation constant Kd in [4] was greater than 10000 nM; in assay [5] it was 54 nM; in [6] (setting [11]) it was greater than 1000 nM; in assay [7], 37 nM; in assay [8] it was 15 nM; in assay [9] (setting [12]), greater than 10000 nM. In addition, the “R4 KD (nM)” value in assay [6] (setting [11]) is on record as “no observable binding”.

As for `CSCC[C@H](NC(C)=O)C(=O)N[C@H]1CSSC[C@@H](C(=O)NCC(=O)N[C@@H](CO)C(=O)NCC(=O)N[C@@H](CO)C(=O)N[C@@H](CC(=O)O)C(=O)N[C@@H](Cc2ccc(O)cc2)C(=O)N[C@@H](CCCCN)C(=O)N[C@@H](CC(=O)O)C(=O)N[C@@H](CC(=O)O)C(=O)N[C@@H](CC(=O)O)C(=O)N[C@@H](CC(=O)O)C(=O)N[C@@H](CCCCN)C(N)=O)NC(=O)[C@H](Cc2c[nH]cn2)NC(=O)[C@H](CCCNC(=N)N)NC(=O)[C@H](CC(C)C)NC(=O)[C@H](CC(=O)O)NC(=O)[C@H](CCCCN)NC(=O)[C@H](Cc2ccc(O)cc2)NC(=O)[C@H](CC(C)C)NC(=O)[C@H](CC(C)C)NC(=O)[C@H](C(C)C)NC(=O)[C@H](CC(N)=O)NC1=O` [4.17], the Kd is greater than 10000 nM in assay [4]; greater than 10000 nM in assay [5]; greater than 1000 nM in [6] (setting [11]); greater than 1000 nM in [7]; greater than 1000 nM in assay [8]; greater than 10000 nM in assay [9] (setting [12]).

With “FGF1: FGF1 used as positive control [reference compound]”, the concentration for half-maximal inhibition (IC50) in assay [1] (setting [13]) is 3 nM; in [2] (setting [14]), 7 nM; in assay [3] (setting [15]), 4 nM.

B1: FGF21: unlabelled FGF21, natural ligand used as positive control (protein, UniProt Q9NSA1 29-209, looked up)
Fibroblast growth factor 21: HPIPDSSPLLQFGGQVRQRYLYTDDAQQTEAHLEIREDGTVGGAADQSPESLLQLKALKPGVIQILGVKTSRFLCQRPDGALYGSLHFDPEACSFRELLLEDGYNVYQSEAHGLPLHLPGNKSPHRDPAPRGPARFLPLPGLPPALPEPPGILAPQPPDVGSSDPLSMVGPSQGRSPSYAS
As for B1, the IC50 in [1] (setting [13]) is 20 nM; in assay [2] (setting [14]), 674 nM; in assay [3] (setting [15]), 23 nM.

The values are drawn from PMC10763615, “Identification and engineering of potent cyclic peptides with selective or promiscuous binding through biochemical profiling and bioinformatic data analysis” (RSC Chemical Biology, 2023).
